Common to all, as to assay type: binding
Test [1] addresses T1, recombinant HLA-DR402 (HLA-DRA1*01:01, HLA-DRB1*04:02) (Homo sapiens, UniProt P01903+P01911, A100E/A169T/F76Y/K127E/L162R/M171V/N62H/P40V/Q125Y/Q99D/R42H/S133A/S149N/S66Y/V209L/W38E).
T1 construct: poly-histidine (C); made in house; host or cells: High Five (Hi5) insect cells, baculovirus (pAcGP67a)
Briefly: biochemical.

For test [2], the target named is yeast-displayed HLA-DR401 (Homo sapiens, UniProt P01903+P01911, A100K/A169T/D72E/F76Y/I96L/K127E/L162R/M171V/M61L/P40V/Q125Y/R42H/S133A/S149N/S66Y/V115G/V157M/V209L/W38E). Briefly: Yeast-display randomized peptide library selection and deep sequencing, HLA-DR401. The arrangement: key: 1=binder; 0=non-binder.
Test [3] concerns the target T2, recombinant HLA-DR401 (HLA-DRA1*01:01, HLA-DRB1*04:01) (Homo sapiens, UniProt P01903+P01911, A100K/A169T/F76Y/I96L/K127E/L162R/M171V/N62H/P40V/Q125Y/R42H/S133A/S149N/S66Y/V115G/V209L/W38E).
T2 construct: poly-histidine (C); made in house; host or cells: High Five (Hi5) insect cells, baculovirus (pAcGP67a)
Briefly: biochemical.

Setting [4] is: HLA-DR402, estimated from two-point fluorescence polarization competition, Fig5F, read-out: Estimated IC50.
[5] abbreviates: SuppFig8C, yeast-display library peptides.
[6] abbreviates: fluorescence polarization peptide competition, HLA-DR401, sheet Fig7, read-out: Measured IC50.

Read-outs that look alike come from different tables or passages of the source. Ends that are not written are not given here.

What is called IC50 is the concentration needed to halve the response being measured. Turning to `CC[C@H](C)[C@H](NC(=O)[C@@H]1CCCN1C(=O)[C@H](Cc1ccc(O)cc1)NC(=O)[C@H](CCCCN)NC(=O)[C@H](CCSC)NC(=O)[C@H](C)NC(=O)[C@H](CCSC)NC(=O)[C@H](CCSC)NC(=O)[C@H](Cc1c[nH]c2ccccc12)NC(=O)[C@H](CCCCN)NC(=O)[C@H](CCSC)NC(=O)[C@H](CCCNC(=N)N)NC(=O)[C@H](CC(C)C)NC(=O)[C@H](C)NC(=O)[C@@H]1CCCN1)C(=O)O`, the IC50 in test [1] (setting [4]) is 1310 nM. As to `CC[C@H](C)[C@H](NC(=O)[C@H](CCC(=O)O)NC(=O)[C@@H](N)[C@@H](C)O)C(=O)N[C@H](C(=O)N[C@@H](CCCNC(=N)N)C(=O)N[C@@H](CCSC)C(=O)N[C@@H](CCSC)C(=O)N[C@@H](CCC(=O)O)C(=O)N[C@@H](CO)C(=O)N[C@@H](C)C(=O)N[C@@H](CCCNC(=N)N)C(=O)N1CCC[C@H]1C(=O)N[C@@H](CCC(=O)O)C(=O)N[C@@H](CC(=O)O)C(=O)N[C@H](C(=O)O)C(C)C)[C@@H](C)CC`, in test [1] (setting [4]), the 50% inhibitory concentration (IC50) is 83.1 nM.

With `CC[C@H](C)[C@H](NC(=O)[C@H](C)NC(=O)[C@@H](NC(=O)[C@H](C)NC(=O)[C@H](CCCNC(=N)N)NC(=O)[C@H](CCCNC(=N)N)NC(=O)CNC(=O)[C@@H](NC(=O)[C@H](CCSC)NC(=O)[C@@H](NC(=O)[C@H](Cc1ccccc1)NC(=O)[C@H](CCC(=O)O)NC(=O)[C@H](CCC(=O)O)NC(=O)[C@@H](N)Cc1ccc(O)cc1)[C@@H](C)O)C(C)C)[C@@H](C)O)C(=O)N[C@@H](CC(C)C)C(=O)O`, the IC50 in test [1] (setting [4]) is 4570 nM.

Consider `CC[C@H](C)[C@H](NC(=O)CNC(=O)[C@H](CCCNC(=N)N)NC(=O)[C@H](CCCCN)NC(=O)[C@@H](NC(=O)[C@H](CCSC)NC(=O)[C@H](CCCNC(=N)N)NC(=O)[C@@H](NC(=O)[C@H](CC(C)C)NC(=O)[C@H](CCC(=O)O)NC(=O)[C@H](CCSC)NC(=O)[C@@H](NC(=O)[C@H](CCSC)NC(=O)[C@@H](N)[C@@H](C)O)C(C)C)C(C)C)[C@@H](C)CC)C(=O)N[C@@H](CC(N)=O)C(=O)O` [TMVMELVRMIKRGIN], for which, in test [1] (setting [4]), the IC50 is 870 nM. Turning to AAACRKRTWLGWEEG, the IC50 in test [1] (setting [4]) and in test [1] (read-out: IC50) was under 10 nM throughout.

For the compound AAADARCSNRSDLMGGSGGG, the “label (1=binder, 0=non-binder)” value in test [2] (Fig6B data set) and in test [2] (setting [5]) was 0 throughout. In the case of AAAKYRLHVKSGWSGGSGGG, in test [2] (Fig6B data set), the “label (1=binder, 0=non-binder)” value is listed as 0. Turning to AAALSTSWLFCSRCGGSGGG, the “label (1=binder, 0=non-binder)” value in test [2] (Fig6B data set) and in test [2] (setting [5]) was 0 throughout. For AAAMQRRNPALLLFGGSGGG, the “label (1=binder, 0=non-binder)” value in test [2] (Fig6B data set) and in test [2] (setting [5]) was 0 in each case.

AAANRRPSLLGWEEG: the IC50 in test [1] (setting [4]) and in test [1] (read-out: IC50) was under 10 nM each time. Consider AAANWSSSPDMPLVGGSGGG, for which the “label (1=binder, 0=non-binder)” value in test [2] (Fig6B data set) and in test [2] (setting [5]) was 0 throughout. Regarding AAARGALTTQLLAIGGSGGG, the “label (1=binder, 0=non-binder)” value in test [2] (setting [5]) is 0. With AACRKHGSSIGWEEG, the concentration for half-maximal inhibition (IC50) in test [1] worked out at 132 nM. Regarding AAEHVWPSLVGWEEG, the IC50 in test [1] came to 25.6 nM. Regarding AAGRSHRTHEGWEEG, the IC50 in test [1] stood at 10 nM. AALDAHRDHMAWEEG: the half-inhibitory concentration (IC50) in test [1] (setting [4]) and in test [1] (read-out: IC50) was under 10 nM in each case.

In the case of AALTGKLGHRGWEEG, the 50% inhibitory concentration (IC50) in test [1] (setting [4]) and in test [1] (read-out: IC50) was under 10 nM each time. With AALWRHPGHVGWEEG, the IC50 in test [1] turned out to be 74.9 nM.

Take AAPRRHANHLGWEEG: in test [1], the 50% inhibitory concentration (IC50) was determined as 130 nM. Turning to AAQVDWPTLPMWEEG, the IC50 in test [1] is 63.6 nM.

Regarding AATERRPTLMAWEEG, the half-inhibitory concentration (IC50) in test [1] (setting [4]) and in test [1] (read-out: IC50) was under 10 nM in each case. As to AAVREKCDHVGWEEG, the IC50 in test [1] is 75.5 nM. On to AAVSDRLPLRGWEEG, for which the half-inhibitory concentration (IC50) in test [1] (setting [4]) and in test [1] (read-out: IC50) was under 10 nM each time.

Turning to AAVTEEKSHLGWEEG, the IC50 in test [1] was 58.3 nM. The same measure, in the same setting: the result for AAVTERPINLGWEEG reads 51.3 nM. For the compound AAVTNWGCEVGWEEG, in test [1], the 50% inhibitory concentration (IC50) was 136 nM.

Consider AQKIVEWDSRKSKYG, for which the concentration for half-maximal inhibition (IC50) in test [1] stood at 62 nM. The same measure, in the same setting: the result for ASKIAFKIVSQEPAG reads 27.8 nM. Regarding ASKMRMATPLLMQAG, the values for the half-maximal inhibitory concentration (IC50) in test [1] (setting [4]) and in test [3] were under 10 nM and 5170 nM, respectively. Take LGFVFTLTVPSERGL: the IC50 in test [1] (setting [4]) is 409 nM. For NRMVLASTTAKAMEQ, the IC50 in test [1] (setting [4]) and in test [1] (read-out: IC50) was under 10 nM in each case.

As to PIPVIFHRIATELRKTNDIN, in test [3] (setting [6]), the half-inhibitory concentration (IC50) came out at 698 nM.

Consider PIPVIFHRIATELSKTNDIN, for which the IC50 in test [3] (setting [6]) is 42.1 nM.

As for RKDLIVMLMDTDVNKQDKQK, the half-inhibitory concentration (IC50) in test [3] (setting [6]) stood at 3170 nM. For VSSFQDILLRMSKMQ, the IC50 is over 50000 nM in test [3] (HLA-DR401, fluorescence polarization competition, Fig3B, read-out: Measured IC50) and over 50000 nM in test [3] (read-out: Measured IC50). As to VYGWATLVSERSKNGMQRIL, the IC50 in test [3] (setting [6]) was 245 nM. Still for that read-out and setting: in the case of VYGWATLVSERSNNGMQRIL it was 94 nM; in that of WRAPSYILSPELTQRLFSAA, 248 nM. In the case of YSIEVLLVLDDSVVRFHGKE, the IC50 in test [3] (setting [6]) and in test [3] (read-out: Measured IC50) was over 50000 nM in each case. Take YVGDMLAWLHQSTASEKEHL: the half-inhibitory concentration (IC50) in test [3] (setting [6]) amounted to 406 nM.

YWKQWLSLRNPILVF: in test [3] (fluorescence polarization competition, […], competitor 20 µM to 1.28 nM in five-fold dilutions, n = 3 replicates, read-out: Measured IC50), the IC50 was determined as 2510 nM.

Source of the values: PMC7473865, “Repertoire-scale determination of class II MHC peptide binding via yeast display improves antigen prediction” (Nature Communications, 2020).
